This series deals with T1, Solute carrier organic anion transporter family member 1A4 (Mus musculus, UniProt Q9EP96).
T1 sequence (Q9EP96 whole entry): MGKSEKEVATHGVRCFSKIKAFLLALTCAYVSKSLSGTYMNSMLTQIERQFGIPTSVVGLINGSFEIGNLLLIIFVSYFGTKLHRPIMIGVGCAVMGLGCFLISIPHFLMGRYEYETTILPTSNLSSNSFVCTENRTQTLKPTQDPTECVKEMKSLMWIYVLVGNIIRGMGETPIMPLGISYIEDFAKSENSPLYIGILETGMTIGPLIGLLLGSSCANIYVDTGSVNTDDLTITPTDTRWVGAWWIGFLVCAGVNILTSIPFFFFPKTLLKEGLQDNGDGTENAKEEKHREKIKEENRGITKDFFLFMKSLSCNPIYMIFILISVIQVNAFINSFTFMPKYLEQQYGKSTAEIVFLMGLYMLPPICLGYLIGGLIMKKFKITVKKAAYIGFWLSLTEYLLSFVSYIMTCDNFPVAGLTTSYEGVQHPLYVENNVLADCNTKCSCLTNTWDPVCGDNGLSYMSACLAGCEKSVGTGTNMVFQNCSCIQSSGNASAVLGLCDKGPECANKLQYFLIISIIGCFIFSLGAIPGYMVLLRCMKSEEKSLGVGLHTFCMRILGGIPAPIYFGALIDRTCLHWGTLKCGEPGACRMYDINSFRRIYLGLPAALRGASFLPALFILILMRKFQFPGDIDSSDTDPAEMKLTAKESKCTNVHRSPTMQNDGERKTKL
Description: TP_TRANSPORTER: Northern blot in vivo, liver of PXR+/+ mouse. Type of series: functional, organism-based.

The values below come from ChEMBL document CHEMBL2074374, “The nuclear receptor PXR is a lithocholic acid sensor that protects against liver toxicity” (Proc Natl Acad Sci U S A, 2001).

`C[C@H](CCC(=O)O)[C@H]1CC[C@H]2[C@@H]3CC[C@@H]4C[C@H](O)CC[C@]4(C)[C@H]3CC[C@]12C` [LITHOCHOLIC ACID]: the Activity result is “inducer [+]”.
Turning to `CC(=O)[C@H]1[C@H](C#N)C[C@H]2[C@@H]3CC=C4C[C@@H](O)CC[C@]4(C)[C@H]3CC[C@@]21C` [PREGNENOLONE CARBONITRILE], the Activity entry was “inducer [+]”.
